Laboratory results taken from US12668785B2, “Combination treatment by administering a recombinant apyrase protein in conjunction with a P2Y12 inhibitor” (ASTRAZENECA AB, priority 2020, dated 2026).
Read-outs that look alike come from different tables or passages of the source.

Experiments:
platelet aggregation [1] = details: cited from earlier work; for time for platelet activity to return to baseline following discontinuance: after discontinuance
[2] = cited from earlier work; for time to peak plasma concentration: after oral administration; for mean elimination half-life: described in the drug label
animal models [3] = details: cited from earlier work
[4] = tested on: pig animal model of myocardial infarction; test: Cardiac damage assessed by CMR in pig model of myocardial infarction; assay type: in vivo; details: ticagrelor 180 mg p.o. 2 h prior MI, then 90 mg/bid
Description: (§1) Regular chow-fed Landrace pigs (n=20; weight≈40 kg) were randomly (Excel randomized function) distributed into four groups to receive: • I) Oral placebo-control (2 h prior Myocardial Infarction (MI) induction n=5) • II) A loading dose of ticagrelor (180 mg; n=5; p.o 2 h prior MI induction) • III) A loading dose of ticagrelor (180 mg; n=5; p.o 2 h prior MI induction and 1 mg/kg AZD3366 i.v. 10 min before reperfusion) • IV) A loading dose of ticagrelor (180 mg; n=5; p.o 2 h prior MI induction and 3 mg/kg AZD3366 i.v. 10 min before reperfusion)
(§2) Thereafter, pigs underwent temporary (90 minutes) balloon occlusion of the mid-left anterior descending coronary artery (experimental MI) and then reperfused, essentially as described in Vilahur et al. 2016. Throughout the following 42 days, the pigs received daily oral maintenance dosing of placebo (group I) or ticagrelor (90 mg/bid, groups II to IV) and serial Cardiac Magnetic Resonance (CMR) assessments were performed at day 3 (early remodeling phase) and day 42 (late remodeling phase) post-MI.
(§3) On the day of MI-induction animals received buprenorphine (0.03 mg/kg) and cefazoline (25 mg/kg) as prophylaxis for pain and wound infection, respectively, and then anaesthetized by administrating an intramuscular injection of ketamine (30 mg/kg), xylazine (2.2 mg/kg), and atropine (0.05 mg/kg). Once tranquilized, animals were endotracheally intubated and anesthesia was maintained by isoflurane inhalation (2%). Prior to starting the MI-induction procedure, an infusion of amiodarone (300 mg) and lidocaine (150 mg) in 1.000 mL of saline (250 mL/h) was initiated as prophylaxis for malignant ventricular arrhythmias through a line placed in the marginal ear vein and a bolus of heparin (100 U/kg) was administered to prevent clot formation in the catheters. […] Complete coronary ischemia (verified by angiography) was maintained for 90 minutes. At the end of the ischemic period, the balloon was completely deflated and animals were allowed to recover. Electrocardiogramand hemodynamic parameters were continuously recorded throughout the entire procedure and the echocardiographic system (Phillips iE33) equipped with a S5-1 sector array transducer was used prior- and post-MI induction to document the initial worsening of left ventricular ejection fraction (LVEF, M-mode analysis using the parasternal long-axis view; Vilahur et al. 2016).
(§4) CMR studies were conducted serially in all animals at Day 3 (early remodeling phase) and Day 42 (late remodeling phase) post-MI. The studies were performed on a 3.0T-CMR system (AchievaVR, Philips, Amsterdam, The Netherlands) and CMR image acquisition was carried out by a CMR specialized technician blinded in terms of treatment. For CMR studies, animals were anaesthetized with an intramuscular injection of a cocktail composed of ketamine, xylazine, and atropine and maintained by a continuous intravenous infusion of propofol to ensure mechanical ventilation. Once the animals were positioned in a head-first supine position with a flexible phased-array surface coil placed over the chest, ECG gating was used to acquire still images of the heart. The following dedicated CMR sequences were acquired in all cases: ‘cine’ Balanced Steady-State Free Precession (bSSFP) imaging sequence to assess wall motion (WM) and cardiac function; T2-weighted short-tau inversion recovery (T2w-STIR) sequence to assess myocardial edema; early gadolinium enhancement to study microvascular obstruction (no reflow phenomenon); and late gadolinium enhancement (LGE) to assess the amount and extent of myocardial necrosis. All the CMR studies followed the same scheme. First, scout images [T1-turbo field echo (TFE) sequence] were obtained to localize the true axes of the heart and define a field of view involving the whole heart. […]

[5] = tested on: pig animal model of myocardial infarction; test: Global and regional cardiac function assessed by CMR in pig model of myocardial infarction; assay type: in vivo
Description: as §1, §2, §3, §4

[6] = Plasma concentration of ticagrelor by LC-MS/MS; assay type: in vivo; details: C57BI6, mouse, intravenous, t = 80 min, ticagrelor 1.2 mg/kg + 30 μg/kg*min
Description: The plasma concentration of ticagrelor was determined by means of a Liquid Chromatographic-Mass Spectrometric (LC-MS/MS) method.

platelet aggregation [7] = test: ADP-induced whole blood platelet aggregation (Multiplate impedance aggregometer) after in vivo dosing; design: species or system mouse; details: for PA (AU*min): blood at t = 80 min, ADP 6.5 μmol/L
Description: Immediately after the blood sampling, 175 μL whole blood was added to the Multiplate® (Roche Diagnostics GmbH, Mannheim, Germany) mini test cells and mixed with 175 μL 37° C. pre-heated saline (9 mg/mL, Fresenius Kabi AG, Bad Homburg, Germany).

C57BI6 mice [8] = test: Mouse tail bleeding model (blood loss and bleeding time)
Description: (§5) C57BI6 mice were administered an intravenous bolus of AZD3366 or vehicle. In separate groups, mice were administered AZD3366 and ticagrelor or ticagrelor only as a bolus and continuous infusion of ticagrelor. The groups, doses and volumes of administration were as described in the following table:
(§6) Twenty min following dosing, bleeding was initiated by cutting 5 mm of the tip of the tail. The tail was rinsed with water and placed in a haemoglobin sensitive device. Light transmission through the blood and water mixture was recorded and converted to absorbance using the PharmLab software (V6.0, AstraZeneca R&D, Gothenburg, Sweden). Transmittance below 95% was defined as bleeding. Total blood loss, (area under the bleeding curve, t=20 min to t=80 min: cumulative blood loss vs time, absorbance*s, abs*s) and bleeding time (BT) were measured over 60 min from the start of tail cutting.

animal models [9] = details: cited from earlier work; remark: listed apart in the source
[10] = in vivo; cited from earlier work
C57BI6 mice [11] = details: mouse, in vivo, iv
Description: as §5, §6

[12] = tested on: adenosine diphosphatase activity; details: Moeckel et al. (2014); cited from earlier work
[13] = tested on: animal models of ischemic stroke; details: Sun et al., 2011; Tan et al., 2014; cited from earlier work
[14] = 3 Days Post-MI, ticagrelor 180 mg p.o. 2 h prior MI, then 90 mg/bid
[15] = 42 Days Post-MI, ticagrelor 180 mg p.o. 2 h prior MI, then 90 mg/bid
[16] = BSL (baseline), ticagrelor group
[17] = ticagrelor-treated animals, p<0.001
[18] = preclinical models (Moekel et al. 2015)

For `CSCCNc1nc(SCCC(F)(F)F)nc2c1ncn2[C@@H]1O[C@H](COP(=O)(O)OP(=O)(O)C(Cl)(Cl)P(=O)(O)O)[C@@H](O)[C@H]1O` [Cangrelor], which “time for platelet responses to return to baseline” value (platelet aggregation [1]; after discontinuation) is on record?
Its value is no more than 15 min.

And the “time to maximal platelet inhibition” value (platelet aggregation [1]; in vivo)?
The value was no more than 15 min.

And the “time to steady state plasma levels and platelet aggregation inhibition” value ([2]; from onset of infusion)?
Its value is no more than 30 min.

And the elimination half-life ([2]; in vivo)?
Its elimination half-life is 3 to 6 min.

And the plasma half-life ([2]; in vivo)?
Its plasma half-life is “less than 9 min”.

With `CCCSc1nc(N[C@@H]2C[C@H]2c2ccc(F)c(F)c2)c2nnn([C@@H]3C[C@H](O)[C@@H](O)[C@H]3O)c2n1` [AR-C124910XX] as the molecule, how does the “potency of active metabolite relative to ticagrelor” value (platelet aggregation [1]; in vivo) read?
Its value is “approximately equipotent”.

And the “time to peak plasma concentration” value [2]?
Its value is roughly 2.5 h.

What about the mean elimination half-life [2] of the same molecule?
The mean elimination half-life was 9 h.

For `CC(=O)Oc1cc2c(s1)CCN(C(C(=O)C1CC1)c1ccccc1F)C2` (stereo not shown) [Prasugrel], which elimination half-life ([2]; stated after the active metabolite of prasugrel) is on record?
Its elimination half-life is “about 7.4 hours”.

With `Clc1ccccc1CN1CCc2sccc2C1` [ticlopidine] as the molecule, how does the “time to peak plasma concentration” value [2] read?
The value was “around 2 hours”.

With `COC(=O)[C@H](c1ccccc1Cl)N1CCc2sccc2C1` [Clopidogrel] as the molecule, how does the “time for platelet activity to return to baseline following discontinuance” value (platelet aggregation [1]) read?
Its value is “about 5 days”.

What about the “time at which dose-dependent platelet aggregation inhibition is observed” value (platelet aggregation [1]; following oral administration of a single dose) of the same molecule?
Its value is “around 2 hours”.

What about the “cardioprotection / protective efficacy” value (animal models [3]; FIG. 6 of Moeckel et al. (2014)) of the same molecule?
Its value is “not cardioprotective”.

And the elimination half-life ([2]; following a single dose of 75 mg)?
The elimination half-life was “approximately 6 hours”.

And the “time to peak plasma concentrations of the active metabolite” value ([2]; following an oral dose, analyte: active metabolite)?
The value was 30 to 60 min.

For `CCCSc1nc(N[C@@H]2C[C@H]2c2ccc(F)c(F)c2)c2nnn([C@@H]3C[C@H](OCCO)[C@@H](O)[C@H]3O)c2n1` [Ticagrelor, (1S,2S,3R,5S)-3-[7-[[(1R,2S)-2-(3,4-difluorophenyl)cyclopropyl]amino]-5-(propylthio)-3H-1,2,3-triazolo[4,5-d]pyrimidin-3-yl]-5-(2-hydroxyethoxy)-1,2-cyclopentanediol], which “Edema % of LV mass” value ([4]; 3 Days Post-MI) is on record?
Its value is 13.1 ± 0.9 %.

And the “Edema (gr)” value ([4]; 3 Days Post-MI)?
The value was 10.5 ± 0.8 gr.

What about the “LV Mass” value ([4]; 3 Days Post-MI) of the same molecule?
The value was 81.3 ± 7.4.

And the “Necrosis % of LV mass” value ([4]; 3 Days Post-MI)?
Its value is 8.2 ± 1.2 %.

What about the “Necrosis (gr)” value ([4]; 3 Days Post-MI) of the same molecule?
Its value is 6.6 ± 1.0 gr.

What about the “LV Mass” value ([4]; 42 Days Post-MI) of the same molecule?
The value was 108.6 ± 6.9.

What about the “Necrosis % of LV mass” value ([4]; 42 Days Post-MI) of the same molecule?
The value was 4.3 ± 0.8 %.

What about the “Necrosis (gr)” value ([4]; 42 Days Post-MI) of the same molecule?
Its value is 4.7 ± 1.0 gr.

What about the LVEF % [5, 14] of the same molecule?
Its LVEF % is 50.3 ± 2.9%.

What about the “Wall motion (mm)” value [5, 14] of the same molecule?
The value was 1.88 mm.

And the LVEF % [5, 15]?
The LVEF % was 47.0 ± 4.4%.

And the “Wall motion (mm)” value [5, 15]?
Its value is 2.55 mm.

And the LVEF % [5, 16]?
The LVEF % was 53.7 ± 2.8%.

What about the “Wall motion (mm)” value [5, 16] of the same molecule?
Its value is 2.66 mm.

And the “time maximum inhibition of platelet aggregation is maintained” value (platelet aggregation [1]; after a dose)?
Its value is “more than 8 hours”.

And the “time for platelet activity to return to baseline following discontinuance” value (platelet aggregation [1])?
Its value is 5 days.

And the concentration at 80 min [6]?
Its concentration at 80 min is 8 ± 0.2 µM.

And the “PA (AU*min)” value (platelet aggregation [7]; ticagrelor 1.2 mg/kg + 30 μg/kg*min)?
The value was 2 ± 2 AU*min.

And the “BT (s) Median” value (C57BI6 mice [8]; bleeding time over 60 min, ticagrelor bolus 1.2 mg/kg + infusion 30 μg/kg*min)?
The value was 3433a, d s.

And the “Blood loss (abs*s) Median” value (C57BI6 mice [8]; tail transection at t = 20 min, recorded 60 min, ticagrelor bolus 1.2 mg/kg + infusion 30 μg/kg*min)?
The value was 1157a, b, c abs*s.

What about the “BT increase as compared to vehicle” value (C57BI6 mice [8]; [17]) of the same molecule?
The value was 5.2 fold.

What about the “Blood loss increase as compared to vehicle” value (C57BI6 mice [8]; [17]) of the same molecule?
Its value is 7.2 fold.

What about the “time to peak plasma concentration” value [2] of the same molecule?
Its value is “approximately 1.5 hours”.

What about the mean elimination half-life [2] of the same molecule?
Its mean elimination half-life is 7 h.

B1: AZD3366: recombinant optimised form of soluble CD39L3 apyrase (R67G, T69R, N-terminal EVLP), amino acid sequence SEQ ID NO: 2 (protein)
chain: EVLPPGLKYGIVLDAGSSGTRVYVYQWPAEKENNTGVVSQTFKCSVKGSGISSYGNNPQDVPRAFEECMQKVKGQVPSHLHGSTPIHLGATAGMRLLRLQNETAANEVLESIQSYFKSQPFDFRGAQIISGQEEGVYGWITANYLMGNFLEKNLWHMWVHPHGVETTGALDLGGASTQISFVAGEKMDLNTSDIMQVSLYGYVYTLYTHSFQCYGRNEAEKKFLAMLLQNSPTKNHLTNPCYPRDYSISFTMGHVFDSLCTVDQRPESYNPNDVITFEGTGDPSLCKEKVASIFDFKACHDQETCSFDGVYQPKIKGPFVAFAGFYYTASALNLSGSFSLDTFNSSTWNFCSQNWSQLPLLLPKFDEVYARSYCFSANYIYHLFVNGYKFTEETWPQIHFEKEVGNSSIAWSLGYMLSLTNQIPAESPLIRLPIEPPV
modifications: N-terminal EVLP
Which results are given for B1?
time until active after administration (animal models [9]; animal models): ≤ 5 min; time until return to baseline (animal models [9]; animal models): 3 to 4 weeks; time activity is maintained (animal models [9]; [18]): more than 24 hours; time to high levels of activity after administration (animal models [9]; [18]): within minutes; plasma half-life compared with native apyrase [10]: 50 times; BT (s) Median (C57BI6 mice [11]; 1 mg/kg): 589 s; Blood loss (abs*s) Median (C57BI6 mice [11]; 1 mg/kg): 157 abs*s; BT (s) Median (C57BI6 mice [11]; 3 mg/kg): 1438 s; Blood loss (abs*s) Median (C57BI6 mice [11]; 3 mg/kg): 342e abs*s; adenosine diphosphatase activity compared with native apyrase [12]: four times higher; reperfusion, re-occlusion and intracerebral bleeding [13]: enhance reperfusion, reduce re-occlusion and reduce intracerebral bleeding; bleeding time (animal models [3]; Moeckel et al. (2014)): without an increase in bleeding time; infarction size (animal models [3]; Moeckel et al. (2014)): decreased infarction size; platelet aggregation (PA) inhibition (platelet aggregation [7]; AZD3366 1 and 3 mg/kg): complete platelet aggregation (PA) inhibition; PA (AU*min) (platelet aggregation [7]; AZD3366 1.0 mg/kg): 2 ± 2 AU*min; PA (AU*min) (platelet aggregation [7]; AZD3366 3.0 mg/kg): 0 ± 0 AU*min
